In article PMC9414676, “Experimental Studies Indicate That ST-2223, the Antagonist of Histamine H3 and Dopamine D2/D3 Receptors, Restores Social Deficits and Neurotransmission Dysregulation in Mouse Model of Autism” (Pharmaceuticals, 2022):

Key:
[1] = molecular target: EeAChE (Electrophorus electricus, UniProt O42275); test: Acetylcholine esterase inhibition (preliminary data); format: biochemical, electric eel
[2] = molecular target: T1, hH3R (Homo sapiens, UniProt Q9Y5N1); test: [3H]Nα-methylhistamine binding assay, membranes of HEK cells stably expressing hH3R
T1 construct: expressed in transfected cells
Method: In vitro, ST-2223 was evaluated for its H3R affinity on membrane preparations of HEK-293 cells, which stably express the hH3R, by [^3H]N^α-methylhistamine displacement assays.

[3] = system: acetylcholine levels in BTBR mice brain; test: Acetylcholine levels by LC-MS/MS in brain regions; format: in vivo; set-up: key to Acetylcholine level: ↔: No significant alterations; ↑: significant increase; ↑↑: additional significant increase vs. ST-2223-treated mice; ↓: significant decrease; settings: for Acetylcholine level: ST-2223 5 mg/kg i.p. chronic, vs VEH-treated BTBR mice
Method: (§1) All the mice were randomly divided into nine groups of 5–7 mice each. The mice were injected intraperitonially once daily for 21 days with different doses of ST2223 (2.5, 5, and 10 mg/kg, i.p.), ARP 1 mg/kg or vehicle (1% DMSO in 0.9% normal saline). Group I, B6 mice were injected with vehicle served as control. Group II, BTBR mice were treated with vehicle. Groups III–V, BTBR mice received i.p. injections of different doses of ST2223 (2.5, 5, and 10 mg/kg, i.p.), respectively. Group VI, BTBR mice were injected with ARP (1 mg/kg, i.p.). For abrogation studies, Group VII, BTBR mice were treated with ST2223 (5 mg/kg, i.p.) along with RAM (10 mg/kg, i.p.). Group VIII, B6 mice were co-injected with vehicle and RAM (10 mg/kg, i.p). All treatments and vehicle (VEH) were administered 30–45 min before each behavioral test. The doses of these drugs were selected based on previous reports. Behavioral testing was performed between 9:00 am and 3:00 pm in an order randomized by group and in the following sequence: social approach test (SAT) and open field locomotor test (OFL). The chronic treatment started one week before the behavioral test and was continued for a total of 21 days as described above (Figure 7). Following behavioral tests, i.e., on day 21 of systemic treatment, five of the animals were sacrificed. The animals were deeply anesthetized with pentobarbital (40 mg/kg, i.p., body weight). To wash out the blood, cardiac perfusion was carried out using 0.01 M phosphate-buffered saline (PBS) at pH 7.4. The brains were quickly removed and placed on an ice plate, where the cerebellum, hippocampus, prefrontal cortex, and striatum were excised from the brain and snap-frozen in liquid nitrogen for later LC-MS/MS analysis.
(§2) Perfusion was done on anesthetized animals using 1X PBS as described previously. Different regions of the brain were snap frozen. Frozen tissues were then weighed and homogenized in a 10-fold volume of acetonitrile. For 50mg of tissue, 500 µL of acetonitrile and Internal standard mix were added and homogenized. Homogenates were centrifuged at 15,000 rcf for 15 min at 4 °C. Tissue levels of dopamine, acetylcholine, histamine, and their metabolites were assessed using LC-MS/MS. LC-MS/MS analysis was conducted utilizing Waters BEH C18 COLUMN (2.1 × 100 mm, 1.7 µm) using Waters Acquity UPLC Binary Solvent Manager and FTN Sample Manager. The system was run in gradient mode with mobile phase A consisting of LC-MS GRADE WATER + 0.1% FORMIC ACID and mobile phase B consisting of 100% ACETONITRILE. Mobile phase was duly filtered through 0.2 µm filter and degassed ultrasonically for 15 min prior to use. Separations were performed at room temperature with 0.3 mL/min flow rate gradient starting with 90% of A for up to 0.5 min. Then, % of A was decreased gradually until it reached 20% at 2.5 min after which at 3 min %A was brought back to the initial condition and left for equilibration for 2 more minutes before the next injection (total 5 min run time). The injection volume was kept at 1 µL. Mass spectrometric detection was performed in multiple reaction monitoring (MRM) mode with positive electrospray ionization (ESI+) on Xevo TQS mass spectrometer (Waters, Milford, MA) equipped with an electrospray ionization (ESI) source and triple quadrupole mass analyzer. MRM transitions and instrument parameters were set by tuning the instrument by infusing each analyte. MRM transitions taken for quantification were 146.2 > 87.1 for Acetylcholine, 112.2 > 95.2 for Histamine, 154.1 > 137.2 for Dopamine, 150.2 > 91.3 for Acetylcholine D4, and […] > 99.3 for Histamine D4. Capillary Voltage, Source Offset, Source Temperature, De solvation Temperature, Cone Gas Flow, De solvation Gas Flow, Collision Gas Flow, Nebulizer Gas Flow were set as 3.0 (kV), 60.0 (V), 150 (°C), 550 (°C), 150 (L/Hr), 1000 (L/Hr), 0.13 (mL/min), and 7 (Bar), correspondingly. […]

[4] = system: dopamine levels in BTBR mice brain; test: Dopamine levels by LC-MS/MS in brain regions; format: in vivo; set-up: key to Dopamine level: ↔: No significant alterations; ↑: significant increase; ↑↑: additional significant increase vs. ST-2223-treated mice; ↓: significant decrease; settings: for Dopamine level: ST-2223 5 mg/kg i.p. chronic, vs VEH-treated BTBR mice
Method: as §1, §2

[5] = molecular target: T2, hD3R (Homo sapiens, UniProt P35462); test: [3H]spiperone displacement assay, CHO cells expressing hD3Rs; format: binding; settings: ratio of Ki values
T2 construct: expressed in transfected cells; host or cells: CHO cells (from the earlier reading's assay name)

[6] = system: BTBR mice; test: Open field locomotor test (OFL), anxiety-like behavior and locomotion; format: in vivo
Method: as §1
Open field locomotor test (OFL) systematically assesses exploratory activity based on subjecting an animal to an unfamiliar environment whose escape is prevented by surrounding walls. It is a model of anxiety-like behavior, suitable for assessing motor activity as a reaction to an unknown environment, i.e., locomotion motivated by exploration. Both general locomotor activity and anxiety-related behaviors were assessed as the mice were placed individually inside an open field arena (45 × 45 × 30 cm) and were allowed to move freely for 10 min [80]. Mice were introduced into the center area of the arena (23 × 23 cm) and given 5 min habituation before actual behaviors recording. The overall distance moved inside the complete arena and time spent in the center and periphery was recorded for 10 min using CCD camera-assisted motion tracking equipment and software program (EthoVision 3.1, Noldus Information Technology, The Netherlands). Measurements obtained included total distance traveled and center and periphery time spent for […]. After each testing sessions, chambers we cleaned with 70% ethanol, and enough time was allowed for ethanol evaporation and odor dissipation. When evaluating the results, more time spent in the center indicated low levels of anxiety-like behaviors and total distance travelled represented locomotor activity.

[7] = ST-2223 5 mg/kg i.p. chronic, p < 0.05
[8] = ST-2223 10 mg/kg i.p. chronic, p < 0.05

T1 sequence (Q9Y5N1 whole entry): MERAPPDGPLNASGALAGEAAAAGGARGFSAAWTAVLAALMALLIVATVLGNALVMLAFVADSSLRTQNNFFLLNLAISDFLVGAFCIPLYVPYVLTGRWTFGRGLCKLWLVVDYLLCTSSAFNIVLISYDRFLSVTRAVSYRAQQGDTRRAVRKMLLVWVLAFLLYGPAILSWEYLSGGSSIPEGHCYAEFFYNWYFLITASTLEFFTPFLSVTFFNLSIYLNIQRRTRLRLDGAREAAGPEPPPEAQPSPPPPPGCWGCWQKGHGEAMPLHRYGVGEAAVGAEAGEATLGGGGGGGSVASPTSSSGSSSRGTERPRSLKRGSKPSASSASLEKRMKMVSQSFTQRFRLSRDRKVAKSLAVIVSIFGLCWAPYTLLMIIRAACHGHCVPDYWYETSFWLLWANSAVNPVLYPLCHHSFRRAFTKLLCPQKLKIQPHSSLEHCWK
EeAChE, sequence (O42275 24-633): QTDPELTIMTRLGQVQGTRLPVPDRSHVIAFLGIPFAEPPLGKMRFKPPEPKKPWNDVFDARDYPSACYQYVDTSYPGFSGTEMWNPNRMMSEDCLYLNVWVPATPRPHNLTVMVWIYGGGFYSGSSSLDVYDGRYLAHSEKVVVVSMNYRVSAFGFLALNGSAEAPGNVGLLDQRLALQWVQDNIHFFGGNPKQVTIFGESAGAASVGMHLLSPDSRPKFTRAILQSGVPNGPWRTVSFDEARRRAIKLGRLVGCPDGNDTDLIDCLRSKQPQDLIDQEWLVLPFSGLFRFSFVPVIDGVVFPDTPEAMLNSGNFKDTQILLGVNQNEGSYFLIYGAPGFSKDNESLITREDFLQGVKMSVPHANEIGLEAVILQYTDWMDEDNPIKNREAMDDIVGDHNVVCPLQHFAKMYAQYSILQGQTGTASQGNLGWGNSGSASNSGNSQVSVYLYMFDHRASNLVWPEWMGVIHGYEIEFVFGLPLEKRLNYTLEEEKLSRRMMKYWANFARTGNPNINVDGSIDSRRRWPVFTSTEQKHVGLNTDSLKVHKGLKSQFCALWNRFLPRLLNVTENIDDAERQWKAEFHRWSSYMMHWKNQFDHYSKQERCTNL
T2 sequence (P35462 whole entry): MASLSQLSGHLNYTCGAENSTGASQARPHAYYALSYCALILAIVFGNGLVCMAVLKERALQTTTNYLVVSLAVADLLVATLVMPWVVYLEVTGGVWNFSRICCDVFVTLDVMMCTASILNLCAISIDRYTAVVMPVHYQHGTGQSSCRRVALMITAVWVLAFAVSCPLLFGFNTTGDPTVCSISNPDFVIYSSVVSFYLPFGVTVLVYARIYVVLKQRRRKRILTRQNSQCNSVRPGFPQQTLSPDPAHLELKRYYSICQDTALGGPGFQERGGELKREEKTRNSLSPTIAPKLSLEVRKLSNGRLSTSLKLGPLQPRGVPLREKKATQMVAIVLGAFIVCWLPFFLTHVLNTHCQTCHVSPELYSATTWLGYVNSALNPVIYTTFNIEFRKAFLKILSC

COc1ccccc1N1CCN(CCCCNC(=O)c2ccc3cc(OCCCN4CCCCC4)ccc3c2)CC1 [ST-2223, N-(4-(4-(2-methoxyphenyl)piperazin-1-yl)butyl)-6-(3-(piperidin-1-yl)propoxy)-2-naphthamide]
inhibition of acetylcholine esterase enzyme (eeAChE), in words [1]: neglectful inhibition
Ki [2]: 4.6 nM
Acetylcholine level ([3]; Hippocampus): ↑ ^b
Acetylcholine level ([3]; Prefrontal cortex): ↑ ^b
Acetylcholine level ([3]; Striatum): ↑ ^b
acetylcholine levels ([3]; prefrontal cortex, striatum and hippocampus, ST-2223 5 mg/kg chronic, p < 0.05): significant increase of acetylcholine levels
Dopamine level ([4]; Cerebellum): ↓ ^b
Dopamine level ([4]; Hippocampus): ↔
Dopamine level ([4]; Prefrontal cortex): ↑ ^b
Dopamine level ([4]; Striatum): ↑ ^b
dopamine levels ([4]; prefrontal cortex and striatum, ST-2223 5 mg/kg chronic, p < 0.05): significantly increased the dopamine levels in both regions
ratio of hD2Rs/hD3Rs [5]: 10
time spent in the periphery ([6]; ST-2223 2.5 mg/kg i.p. chronic): no group differences
time spent in the center of the open field ([6]; ST-2223 2.5 mg/kg i.p. chronic, p = 0.84): failed to decrease the time spent in the center of the arena to a significant level
time spent in the center of the open field [6, 7]: significantly less time in the central compartment
time spent in the periphery [6, 7]: significantly corrected the decreased time
total distance travelled vs VEH-treated BTBR mice [6, 7]: significantly decreased the total distance travelled
time spent in the periphery ([6]; ST-2223 10 mg/kg i.p. chronic): no group differences
time spent in the center of the open field [6, 8]: significantly less time in the central compartment
total distance travelled vs VEH-treated BTBR mice [6, 8]: significantly decreased the total distance travelled
